Four compounds from ChEMBL document CHEMBL1201862, “PubChem BioAssay data set” (2004) can be followed below.

For one data set, the target named is T1, Cytochrome P450 1A2 (Homo sapiens, UniProt P05177).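 Note: PubChem cytochrome P450 panel assay, CYP1A2 panel member.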
T1 sequence (P05177 whole entry): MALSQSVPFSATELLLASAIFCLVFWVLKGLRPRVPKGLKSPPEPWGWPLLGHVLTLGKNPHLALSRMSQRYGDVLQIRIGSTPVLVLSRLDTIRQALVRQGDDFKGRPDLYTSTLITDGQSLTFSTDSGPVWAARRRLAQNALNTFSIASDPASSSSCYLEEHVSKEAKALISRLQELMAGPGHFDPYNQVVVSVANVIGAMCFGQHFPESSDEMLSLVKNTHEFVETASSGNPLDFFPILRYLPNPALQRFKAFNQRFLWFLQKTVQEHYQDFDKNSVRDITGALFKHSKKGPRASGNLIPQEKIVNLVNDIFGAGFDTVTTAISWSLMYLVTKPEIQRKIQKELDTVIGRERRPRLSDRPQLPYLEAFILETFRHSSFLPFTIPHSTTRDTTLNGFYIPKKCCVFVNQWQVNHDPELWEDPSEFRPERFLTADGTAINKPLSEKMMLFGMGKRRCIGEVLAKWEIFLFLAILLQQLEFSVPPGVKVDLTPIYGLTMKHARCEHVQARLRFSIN

For another data set, the target named is Cytochrome P450 2D6 (Homo sapiens, UniProt P10635).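 Note: CYP2D6 member of a cytochrome P450 panel assay.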
The target of another data set is T2, Cysteine protease ATG4B (Homo sapiens, UniProt Q9Y4P1).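 Note: Fluorescence-based dose-response confirmation assay measuring inhibition of ATG4B activity.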
T2 sequence (Q9Y4P1 whole entry): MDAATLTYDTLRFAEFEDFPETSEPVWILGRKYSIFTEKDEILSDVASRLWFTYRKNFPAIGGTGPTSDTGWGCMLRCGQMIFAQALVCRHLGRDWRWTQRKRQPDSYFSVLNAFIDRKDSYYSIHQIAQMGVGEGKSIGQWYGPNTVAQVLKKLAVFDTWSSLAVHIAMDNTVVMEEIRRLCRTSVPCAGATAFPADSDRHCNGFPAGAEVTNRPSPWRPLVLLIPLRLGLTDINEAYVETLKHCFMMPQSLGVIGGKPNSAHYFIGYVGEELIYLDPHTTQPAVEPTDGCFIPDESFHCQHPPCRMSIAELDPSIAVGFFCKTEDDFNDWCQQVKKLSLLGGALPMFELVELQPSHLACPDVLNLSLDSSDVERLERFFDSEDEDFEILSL
The class given is functional.

The nature of data set [1]: THP-1 cell cytotoxicity, dose response, cytotoxicity control for Vif-APOBEC3G degradation inhibitor project, THP-1 cells (AID 1117359). The class given is functional. The conditions noted are these: Human immunodeficiency virus 1, THP-1.
The target in data set [2] is T3, Runt-related transcription factor 1/Core-binding factor subunit beta (Homo sapiens, UniProt Q01196+Q13951). Kind of data set: inhibitors of RUNX1 Runt–CBFb-SMMHC binding, primary screen, biochemical, FRET, Cerulean-Runt, Venus-CBFb-SMMHC, uHTS (AID 1434).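 Note: partner is the CBFb-SMMHC leukemia fusion protein rather than wild-type CBFb.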 The class given is protein assay.
For data set [3], the target named is T3, Runt-related transcription factor 1/Core-binding factor subunit beta. Briefly: inhibitors of RUNX1 Runt–CBFb-SMMHC binding, biochemical, TR-FRET (AID 1438). In kind it is protein assay. On the technique in general: In TR-FRET formats the signal depends on donor and acceptor labels being close together.
Another data set addresses Phospholipase A2 (Homo sapiens, UniProt P04054). In kind it is functional.
The next data set concerns the target NS3 (Hepatitis C virus, UniProt A3EZJ3). Kind of data set: PubChem AID 2173. On the set-up: species or system Hepacivirus hominis.
The nature of data set [4]: Luminescence Cell-Based Dose Response HTS to Identify Activators of Luciferase Translation or Activity in H4 […] Cells. [Related pubchem assays: 1829 (Project Summary), 1814 (Primary HTS)]. The class given is functional.
A short description of data set [5]: growth suppression of PTEN-null colon cells, dose response, cell-based, HCT116 PTEN knockout (AID 1047).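 Note: HCT116 colon tumor cells with PTEN knocked out; cells exposed to compound for 60 hours before readout; potency for loss of cell viability measured by luminescence.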 In kind it is functional.
The nature of data set [6]: Luminescence Cell-Based Dose Confirmation HTS to Identify Activators of 5'UTR Stem-Loop Driven Alpha-Synuclein mRNA Translation in H4 Neuroglioblastoma Cells. [Related pubchem assays: 1829 (Project Summary), 1814 (Primary HTS)]. In kind it is functional.
A further data set concerns the target Oxytocin receptor (Homo sapiens, UniProt P30559). Briefly: Counterscreen for vasopressin 1 receptor (V1R) agonists: Fluorescence-based cell-based high throughput dose response assay for agonists of the Oxytocin Receptor (OXTR). [Related pubchem assays: 2435 (Primary screen (OXTR agonists in singlicate)), 434964 (Confirmation screen (V1R agonists in triplicate)), 434969 (Counterscreen (OXTR agonists in …. The class given is functional.

In the next data set the target is Vasopressin V1a receptor (Homo sapiens, UniProt P37288). Kind of data set: Fluorescence-based cell-based high throughput dose response screening assay for agonists of the vasopressin 1 receptor (V1R). In kind it is functional.
Data set [7] can be described thus: growth suppression of beta-catenin-knockout colon cells, dose response, cell-based, HCT116, human colon tumor (AID 1045).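 Note: HCT116 colon tumor cells with beta catenin knocked out; cells exposed to compound for 60 hours.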 In kind it is functional.
In data set [8] the target is T4, RNA-binding protein pos-1 (Caenorhabditis elegans, UniProt G5EF15).
T4 sequence (G5EF15 whole entry): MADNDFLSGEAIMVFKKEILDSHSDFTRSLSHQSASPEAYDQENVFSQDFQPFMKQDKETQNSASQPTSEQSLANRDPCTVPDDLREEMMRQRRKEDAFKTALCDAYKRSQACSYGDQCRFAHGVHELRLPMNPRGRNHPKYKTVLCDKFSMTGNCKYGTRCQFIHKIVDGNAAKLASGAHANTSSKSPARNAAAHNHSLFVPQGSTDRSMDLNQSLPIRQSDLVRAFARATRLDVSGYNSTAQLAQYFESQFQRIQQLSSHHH
Kind of data set: inhibitors of POS-1/mex-3 RNA binding, dose response, biochemical, fluorescence polarization (AID 1964).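 Note: purified POS-1 fused to maltose binding protein made in E. coli; potency of compounds blocking POS-1 binding to fluorescent RNA.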

Data set [9] addresses UDP-galactopyranose mutase (Mycobacterium tuberculosis, UniProt P9WIQ1). Kind of data set: Inhibitors of Mycobacterium tuberculosis UDP-galactopyranose mutase (UGM) enzyme Measured in Biochemical System Using Plate Reader - 2105-02_Inhibitor_Dose_CherryPick_Activity. [Related pubchem assays (depositor defined):AID504439].
In another data set the test system is H4. Kind of data set: Luminescence Cell-Based Dose Response HTS to Identify Activators of 5'UTR Stem-Loop Driven Prion Protein mRNA Translation in H4 Neuroglioblastoma Cells. [Related pubchem assays: 1829 (Project Summary), 1814 (Primary HTS)]. The class given is functional. The conditions noted are these: Homo sapiens.
The target in data set [10] is T5, Zinc finger protein mex-5 (Caenorhabditis elegans, UniProt Q9XUB2).
T5 sequence (Q9XUB2 whole entry): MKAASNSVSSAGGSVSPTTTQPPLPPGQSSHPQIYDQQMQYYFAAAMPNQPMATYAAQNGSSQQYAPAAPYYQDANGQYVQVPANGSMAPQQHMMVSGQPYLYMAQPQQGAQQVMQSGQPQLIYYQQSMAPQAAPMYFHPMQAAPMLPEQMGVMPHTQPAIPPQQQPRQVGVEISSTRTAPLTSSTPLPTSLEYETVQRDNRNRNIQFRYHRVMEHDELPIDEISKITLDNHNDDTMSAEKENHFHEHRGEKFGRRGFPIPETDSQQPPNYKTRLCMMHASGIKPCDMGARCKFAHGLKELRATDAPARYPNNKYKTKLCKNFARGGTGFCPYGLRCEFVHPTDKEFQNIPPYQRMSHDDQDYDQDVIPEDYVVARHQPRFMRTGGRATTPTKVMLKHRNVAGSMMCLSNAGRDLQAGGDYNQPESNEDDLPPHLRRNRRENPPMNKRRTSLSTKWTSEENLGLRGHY
Kind of data set: MEX-5/TCR-2 RNA interaction inhibitors, dose response, biochemical, C. elegans, fluorescence polarization (AID 1960).

Activity calls are given as the source filed them.

T3 sequence (Q01196 whole entry, the tested form may be a part): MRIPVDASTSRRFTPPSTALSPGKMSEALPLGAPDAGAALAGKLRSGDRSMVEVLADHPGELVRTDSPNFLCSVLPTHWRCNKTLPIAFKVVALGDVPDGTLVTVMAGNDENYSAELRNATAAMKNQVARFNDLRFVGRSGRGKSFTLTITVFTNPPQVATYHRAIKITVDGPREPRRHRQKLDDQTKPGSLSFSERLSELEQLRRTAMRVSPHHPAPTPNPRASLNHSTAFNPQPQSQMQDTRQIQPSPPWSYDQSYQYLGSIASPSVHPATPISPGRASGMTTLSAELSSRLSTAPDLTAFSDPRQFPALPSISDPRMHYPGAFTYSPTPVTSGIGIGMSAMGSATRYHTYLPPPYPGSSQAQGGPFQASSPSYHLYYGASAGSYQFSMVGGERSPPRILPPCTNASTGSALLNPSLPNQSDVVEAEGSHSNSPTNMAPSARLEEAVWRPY
T3 sequence (Q13951 whole entry, the tested form may be a part): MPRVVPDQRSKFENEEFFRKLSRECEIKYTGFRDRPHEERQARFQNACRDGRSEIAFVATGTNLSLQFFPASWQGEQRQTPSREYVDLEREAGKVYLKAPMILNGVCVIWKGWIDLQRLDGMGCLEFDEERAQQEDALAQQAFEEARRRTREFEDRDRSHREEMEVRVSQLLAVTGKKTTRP
Sequence of Cytochrome P450 2D6 (P10635 whole entry): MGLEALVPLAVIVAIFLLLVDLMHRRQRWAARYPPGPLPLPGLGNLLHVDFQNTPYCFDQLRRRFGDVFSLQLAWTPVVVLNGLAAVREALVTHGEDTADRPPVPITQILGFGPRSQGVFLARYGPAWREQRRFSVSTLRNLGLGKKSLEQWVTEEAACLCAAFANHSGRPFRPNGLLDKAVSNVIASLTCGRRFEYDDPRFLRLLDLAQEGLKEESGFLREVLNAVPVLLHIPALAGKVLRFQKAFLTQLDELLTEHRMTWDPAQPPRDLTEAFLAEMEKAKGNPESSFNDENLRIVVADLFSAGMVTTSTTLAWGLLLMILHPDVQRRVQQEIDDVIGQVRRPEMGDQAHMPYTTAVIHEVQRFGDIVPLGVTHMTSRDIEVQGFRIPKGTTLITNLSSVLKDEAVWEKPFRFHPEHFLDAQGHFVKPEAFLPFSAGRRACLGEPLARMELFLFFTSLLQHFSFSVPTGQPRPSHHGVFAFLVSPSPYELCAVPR
Sequence of Phospholipase A2 (P04054 whole entry): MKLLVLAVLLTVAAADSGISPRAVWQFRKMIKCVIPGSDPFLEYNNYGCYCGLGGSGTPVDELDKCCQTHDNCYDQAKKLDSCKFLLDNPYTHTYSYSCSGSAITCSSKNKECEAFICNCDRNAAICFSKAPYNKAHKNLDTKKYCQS
Sequence of Vasopressin V1a receptor (P37288 whole entry): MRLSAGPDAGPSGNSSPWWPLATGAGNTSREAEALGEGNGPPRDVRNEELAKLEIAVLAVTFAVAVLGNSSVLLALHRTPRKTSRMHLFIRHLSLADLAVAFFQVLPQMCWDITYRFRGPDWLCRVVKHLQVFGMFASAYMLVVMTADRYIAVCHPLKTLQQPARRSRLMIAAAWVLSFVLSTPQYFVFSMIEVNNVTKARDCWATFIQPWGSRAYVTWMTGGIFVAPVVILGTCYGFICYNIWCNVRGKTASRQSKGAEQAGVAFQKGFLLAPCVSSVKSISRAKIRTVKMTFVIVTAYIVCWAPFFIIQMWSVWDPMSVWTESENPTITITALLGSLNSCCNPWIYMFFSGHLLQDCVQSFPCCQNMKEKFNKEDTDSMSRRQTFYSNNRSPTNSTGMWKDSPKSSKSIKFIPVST
Sequence of NS3 (A3EZJ3 whole entry): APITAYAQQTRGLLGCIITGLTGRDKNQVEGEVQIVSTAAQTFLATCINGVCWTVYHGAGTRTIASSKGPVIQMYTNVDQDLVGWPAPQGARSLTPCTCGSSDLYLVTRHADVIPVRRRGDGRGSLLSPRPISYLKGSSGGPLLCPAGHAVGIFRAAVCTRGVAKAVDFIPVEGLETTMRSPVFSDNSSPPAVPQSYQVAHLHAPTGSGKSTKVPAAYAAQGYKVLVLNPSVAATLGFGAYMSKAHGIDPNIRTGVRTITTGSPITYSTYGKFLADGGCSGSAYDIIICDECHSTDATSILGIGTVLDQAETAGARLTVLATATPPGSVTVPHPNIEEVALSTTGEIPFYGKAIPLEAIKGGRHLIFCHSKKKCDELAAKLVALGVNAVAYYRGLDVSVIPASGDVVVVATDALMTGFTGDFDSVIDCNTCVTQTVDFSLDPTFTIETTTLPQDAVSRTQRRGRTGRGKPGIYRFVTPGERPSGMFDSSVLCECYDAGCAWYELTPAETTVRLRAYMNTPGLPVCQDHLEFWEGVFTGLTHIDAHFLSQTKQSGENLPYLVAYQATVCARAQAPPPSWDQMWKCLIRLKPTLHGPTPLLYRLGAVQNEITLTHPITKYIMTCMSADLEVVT
Sequence of UDP-galactopyranose mutase (P9WIQ1 whole entry): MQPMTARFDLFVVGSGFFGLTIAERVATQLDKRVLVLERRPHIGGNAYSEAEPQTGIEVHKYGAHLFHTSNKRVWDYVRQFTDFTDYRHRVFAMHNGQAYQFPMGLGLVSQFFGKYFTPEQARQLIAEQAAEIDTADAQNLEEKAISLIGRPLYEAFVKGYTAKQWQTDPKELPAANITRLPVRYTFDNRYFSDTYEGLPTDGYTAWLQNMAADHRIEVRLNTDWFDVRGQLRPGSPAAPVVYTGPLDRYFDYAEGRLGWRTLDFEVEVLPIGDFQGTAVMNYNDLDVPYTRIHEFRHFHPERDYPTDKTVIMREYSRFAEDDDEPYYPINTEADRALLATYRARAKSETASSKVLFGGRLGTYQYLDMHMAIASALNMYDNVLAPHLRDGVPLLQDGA
Sequence of Oxytocin receptor (P30559 whole entry): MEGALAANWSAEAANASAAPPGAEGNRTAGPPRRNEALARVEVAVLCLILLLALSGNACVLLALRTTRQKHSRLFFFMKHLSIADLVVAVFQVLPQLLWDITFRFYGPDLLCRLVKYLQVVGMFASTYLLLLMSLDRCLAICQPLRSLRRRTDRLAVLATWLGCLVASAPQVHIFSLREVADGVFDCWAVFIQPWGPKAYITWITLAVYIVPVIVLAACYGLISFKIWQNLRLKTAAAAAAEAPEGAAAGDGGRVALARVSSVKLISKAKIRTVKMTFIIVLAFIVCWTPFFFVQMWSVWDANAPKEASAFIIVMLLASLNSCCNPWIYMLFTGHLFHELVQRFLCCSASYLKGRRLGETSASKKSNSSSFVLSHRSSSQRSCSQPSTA

Consider `CCNC(=O)COC(=O)c1cc(O)nc2ccccc12`, for which the AC50 at Cytochrome P450 1A2 was 15.8 µM (inconclusive); on Cytochrome P450 2D6, “inconclusive”.

Regarding `CC1CCCCC1NC(=O)COC(=O)c1c2c(nc3ccccc13)/C(=C/c1ccco1)CC2` (stereo not given), the IC50 is 14.4 µM (active) on Cysteine protease ATG4B; > 100 µM (inactive) in data set [2]; 10.6 µM (active) in data set [3]; 8.31 µM (active) on Phospholipase A2; 11.1 µM (not active) against NS3. The CC50 in [1] was > 40 µM (active).

In the case of `CCOCCCn1c(=N)c(C(N)=S)cc2c(=O)n3cccc(C)c3nc21`, the IC50 is 0.257 µM (active) in data set [2] and 68.8 µM (inactive) in data set [3].

Take `O=C1c2cccc3c(N4CCCCC4)ccc(c23)C(=O)N1CCO`: the half-maximal effective concentration (EC50) in data set [4] was 94.8 µM (active); in data set [5], 67.5 µM (active); in data set [6], 16.5 µM (active); on Oxytocin receptor it was > 3.32 µM (active); at Vasopressin V1a receptor, 4.75 µM (active); in data set [7], 164 µM (active). For the same compound, the EC50 is 65.2 µM (active) in data set [8], > 120 µM (not active) in the data set with H4 and 114 µM (active) in data set [10]. Moreover, in data set [9], the AC50 was 151 µM (active).

In general, AC50 refers to the concentration giving half of the maximal activity seen. As a reminder, the IC50 is the concentration that gives 50% inhibition. In general, CC50 refers to the concentration that lowers cell viability or growth by half. By EC50 is commonly meant the midpoint of the concentration-response curve.
